target: PI3K-alpha (Homo sapiens (Human), UniProt P42336); assay: HTRF PI3K biochemical assay, alpha isoform; conditions: ratio PI3K-alpha IC50 value/PI3K-delta IC50 value
Description: HTRF PI3K Biochemical Assay to Measure Intrinsic Potency of Compound Inhibitors
The PI3-Kinase biochemical assays were developed to measure the intrinsic potency and compound dependent inhibition of the alpha, beta, delta, and gamma PI3K isoform enzymes. This assay was developed and further optimized from a kit produced by Upstate (Millipore catalog #33-047) and has been configured for HTS and SAR screening. Briefly, this procedure exploits the exquisite specificity and high affinity binding of enzyme reaction substrate phosphatidyl(3,4,5)triphosphate (PIP3) to the GRP1 pleckstrin homology (PH) domain to generate the signal. In the absence of PIP3, an HTRF (Homogeneous Time-Resolved Fluorescence energy transfer) complex is formed consisting of europium (Eu)-labeled anti-GST, GST tagged GRP1-PH domain, biotin-PIP3 and streptavidin conjugated APC. The native PIP3 produced by PI3-Kinase activity disrupts in a competitive manner the biotin-PIP3 from the PH domain, resulting in the loss of energy transfer (HTRF complex) and a decrease in the signal. The format of this assay is the same for all 4 isoforms of PI3K; the differences lie in the concentration of enzyme used to achieve robust assay window. The alpha, beta, and delta assays are run at 0.5, 1, and 0.3 nM enzymes and the gamma assay is run at 5 nM enzyme. The ATP concentration is 100 uM in the alpha, beta, and delta assays and 50 uM ATP in the gamma assay. All reactions are run at 5 uM PIP2.
Compounds are serially diluted (3-fold in 100% DMSO) across a 384-well polypropylene source plated from column 3 to column 12 and column 13 to column 22, to yield 10 concentration dose response for each test compound. Columns 1, 2, 23 and 24 contain either only DMSO or pharmacological known control inhibitor.
The PI3-Kinase biochemical assay was optimized using the HTRF kit provided by Upstate (Millipore). The assay kit contains six reagents: 1) 4× Reaction Buffer; 2) native PIP2 (substrate); 3) Stop (EDTA); 4) Detection Mix A (Streptavidin-APC); 5) Detection Mix B (Eu-labeled Anti-GST plus GST-tagged PH-domain); 6) Detection Mix C.
PI3Kinase Reaction Buffer is prepared by dilution the stock 1:4 with de-ionized water. […] Enzyme addition and compound pre-incubation are initiated by the addition of 1.25 ul of PI3K (at twice its final concentration) in the 1× reaction buffer to all wells using a BioRaptor. Plates are incubated at room temperature for 15 minutes. Reactions are initiated by addition of 1.25 ul of 2× substrate solution (PIP2 and ATP in 1× reaction buffer) using BioRaptor. Plates are incubated in humidified chamber at room temperature for one hour. Reactions are quenched by addition of 0.625 uL of stop solution to all wells using the BioRaptor. The quenched reactions are then processed to detect product formation by adding 0.625 uL of Detection Solution to all wells using the BioRaptor (Detection mix C, Detection Mix A, and Detection Mix B combined together in an 18:1:1 ratio prepared 2 hours prior to use).
The loss of the HTRF signal is due to the displacement of biotinylated-PIP3 from the PH domain by the PI3K-dependent conversion of PIP2 to PIP3. This loss of signal is nonlinear with respect to both increasing product and time. This non-linear detection will impact accuracy of IC50 calculations; therefore, there is a need for a correction factor to obtain more accurate IC50 values. This correction is derived from a PIP3 standard curve run in a separate assay plate. All data were calculated using the ratio of acceptor (APC) to donor (Europium) fluorescence in each well of the assay plate. […] An IC50 was then calculated fitting the % inhibition data to the equation: % inhibition=min+(Max−min)/1+([inhibitor]/IC50)^n) where min is the % inhibition […], max is the signal in DMSO control, and n is the Hill slope.

Sequence of PI3K-alpha (P42336 whole entry, looked up, canonical isoform): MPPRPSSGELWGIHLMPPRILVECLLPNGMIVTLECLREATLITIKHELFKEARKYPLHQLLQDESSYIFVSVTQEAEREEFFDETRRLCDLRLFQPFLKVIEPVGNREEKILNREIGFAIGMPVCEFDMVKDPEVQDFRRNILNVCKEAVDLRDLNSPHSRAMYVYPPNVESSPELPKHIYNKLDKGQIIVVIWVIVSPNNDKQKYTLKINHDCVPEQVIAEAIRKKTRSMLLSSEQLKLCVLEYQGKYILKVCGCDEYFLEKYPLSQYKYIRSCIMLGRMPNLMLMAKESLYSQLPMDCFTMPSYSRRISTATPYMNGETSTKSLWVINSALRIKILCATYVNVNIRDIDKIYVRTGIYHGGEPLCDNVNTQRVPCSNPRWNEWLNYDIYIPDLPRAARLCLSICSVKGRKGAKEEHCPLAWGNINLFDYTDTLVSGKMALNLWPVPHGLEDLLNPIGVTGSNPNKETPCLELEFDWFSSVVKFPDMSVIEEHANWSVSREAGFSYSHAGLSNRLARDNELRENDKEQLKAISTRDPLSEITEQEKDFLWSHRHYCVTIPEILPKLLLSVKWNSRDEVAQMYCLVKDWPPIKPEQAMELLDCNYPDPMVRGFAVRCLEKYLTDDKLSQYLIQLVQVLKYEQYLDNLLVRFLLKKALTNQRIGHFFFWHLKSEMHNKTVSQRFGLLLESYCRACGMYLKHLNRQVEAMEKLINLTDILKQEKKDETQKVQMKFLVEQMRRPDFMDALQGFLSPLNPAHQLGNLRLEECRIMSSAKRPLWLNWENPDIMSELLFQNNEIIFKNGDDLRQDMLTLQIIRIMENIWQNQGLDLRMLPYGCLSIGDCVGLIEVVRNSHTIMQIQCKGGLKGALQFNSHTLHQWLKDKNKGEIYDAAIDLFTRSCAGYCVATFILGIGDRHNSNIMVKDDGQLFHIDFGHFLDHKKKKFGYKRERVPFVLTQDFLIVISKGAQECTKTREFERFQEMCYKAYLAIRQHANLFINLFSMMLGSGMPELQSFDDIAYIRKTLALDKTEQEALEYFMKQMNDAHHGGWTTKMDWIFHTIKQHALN
Sequence of PI3K-alpha (P27986 whole entry partner, looked up, canonical isoform): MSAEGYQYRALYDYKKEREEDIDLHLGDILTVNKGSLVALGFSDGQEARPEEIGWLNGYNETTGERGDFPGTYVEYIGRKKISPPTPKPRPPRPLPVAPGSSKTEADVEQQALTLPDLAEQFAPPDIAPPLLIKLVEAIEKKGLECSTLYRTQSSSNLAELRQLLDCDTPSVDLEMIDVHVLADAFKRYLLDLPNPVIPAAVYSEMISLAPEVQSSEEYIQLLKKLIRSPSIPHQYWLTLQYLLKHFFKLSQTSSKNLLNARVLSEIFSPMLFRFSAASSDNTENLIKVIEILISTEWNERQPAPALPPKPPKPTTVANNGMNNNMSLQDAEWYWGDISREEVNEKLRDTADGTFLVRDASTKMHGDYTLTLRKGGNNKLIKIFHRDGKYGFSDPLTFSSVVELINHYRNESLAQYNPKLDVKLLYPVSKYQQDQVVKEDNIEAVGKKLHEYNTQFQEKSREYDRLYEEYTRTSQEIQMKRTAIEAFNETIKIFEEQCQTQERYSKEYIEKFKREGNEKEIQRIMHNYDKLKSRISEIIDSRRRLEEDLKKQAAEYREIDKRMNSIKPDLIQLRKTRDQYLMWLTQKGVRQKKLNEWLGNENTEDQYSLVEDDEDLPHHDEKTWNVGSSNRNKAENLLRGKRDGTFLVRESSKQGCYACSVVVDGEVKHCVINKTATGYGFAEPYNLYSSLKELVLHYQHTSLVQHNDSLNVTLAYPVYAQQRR

| Compound | Relative Selectivity versus PI3Kalpha |
| --- | --- |
| Cc1cc2cccc(-c3nc4c(O[C@H]5CCN(C(=O)OC(C)(C)C)C5)ncnc4n3C)c2[nH]1 [Compound 1-21, tert-butyl (3S)-3-{[9-methyl-8-(2-methyl-1H-indol-7-yl)-9H-purin-6-yl]oxy}pyrrolidine-1-carboxylate] | >10 |
| CCn1c(-c2cnc(C)nc2)nc2c(O[C@H]3CCN(c4cccnc4)C3)ncnc21 [Compound 7-24, 9-ethyl-8-(2-methylpyrimidin-5-yl)-6-{[(3S)-1-pyridin-3-ylprrolidin-3-yl]oxy}-9H-purine] | >10 |
| CCn1c(-c2cnc(C)nc2)nc2c(OC3CN(C(=O)C4CC4)CC3(F)F)ncnc21 (stereo not drawn) [Compound 2-99, 6-{[1-(cyclopropylcarbonyl)-4,4-difluoropyrrolidin-3-yl]oxy}-9-ethyl-8-(2-methylpyrimidin-5-yl)-9H-purine] | >10 |
| CCC(=O)N1CC[C@H](Oc2ncnc3c2nc(-c2cnc4[nH]ccc4c2)n3C)C1 [Compound 3-3, (S)-1-(3-((9-methyl-8-(1H-pyrrolo[2,3-b]pyridin-5-yl)-9H-purin-6-yl)oxy)pyrrolidin-1-yl)propan-1-one] | >10 |
| CCn1c(C(=O)NC2CCCCC2)nc2c(O[C@H]3CCN(C(=O)OC(C)(C)C)C3)ncnc21 [Compound 15-4, tert-butyl (3S)-3-{[8-(cyclohexylcarbamoyl)-9-ethyl-9H-purin-6-yl]oxy}pyrrolidine-1-carboxylate] | >10 |
| CCn1ncc(-c2nc3c(O[C@H]4CCN(c5nccc6sccc56)C4)ncnc3n2C)c1C [Compound 7-3, 8-(1-ethyl-5-methyl-1H-pyrazol-4-yl)-9-methyl-6-{[(3S)-1-thieno[3,2-c]pyridin-4-ylpyrrolidin-3-yl]oxy}-9H-purine] | >10 |
| CCn1c(-c2cnc(C)nc2)nc2c(O[C@H]3CCN(C(=O)C4CC4(C)C)C3)ncnc21 (single isomer, unassigned) [Compound 2-126, 6-({(3S)-1-[S- or R-(2,2-dimethylcyclopropyl)carbonyl]pyrrolidin-3-yl}oxy)-9-ethyl-8-(2-methylpyrimidin-5-yl)-9H-purine] | >10 |
| CCn1c(-c2ccc(OC)nc2)nc2c(O[C@H]3CCN(C(=O)C4CC4)C3)ncnc21 [Compound 2-143, 6-{[(3S)-1-(cyclopropylcarbonyl)pyrrolidin-3-yl]oxy}-9-ethyl-8-(6-methoxypyridin-3-yl)-9H-purine] | >10 |
| CCn1ncc(-c2nc3c(OC4CCN(C(=O)C5CCOCC5)CC4)ncnc3n2C)c1C [Compound 2-11, (4-((8-(1-ethyl-5-methyl-1H-pyrazol-4-yl)-9-methyl-9H-purin-6-yl)oxy)piperidin-1-yl)(tetrahydro-2H-pyran-4-yl)methanone] | 2 |
| CCC(=O)N1CC[C@H](Oc2ncnc3c2nc(-c2cnn(CC)c2C)n3C2CC2)C1 [Compound 2-97, (S)-1-(3-((9-cyclopropyl-8-(1-ethyl-5-methyl-1H-pyrazol-4-yl)-9H-purin-6-yl)oxy)pyrrolidin-1-yl)propan-1-one] | >10 |
| CCn1ncc(-c2nc3c(OC4CCC(NC(=O)C5CCOCC5)C4)ncnc3n2C)c1C [Compound 9-3, cis-N-[(1S,3R)-3-{[8-(1-ethyl-5-methyl-1H-pyrazol-4-yl)-9-methyl-9H-purin-6-yl]oxy}cyclopentyl]tetrahydro-2H-pyran-4-carboxamide] | 8 |
| CCC(=O)N1CC[C@H](Oc2ncnc3c2nc(-c2ccc4[nH]ncc4c2)n3C)C1 [Compound 3-5, (S)-1-(3-((8-(1H-indazol-5-yl)-9-methyl-9H-purin-6-yl)oxy)pyrrolidin-1-yl)propan-1-one] | >10 |
